# From ChEMBL document CHEMBL1153236, “Non-aromatic A-ring replacement in the triaryl bis-sulfone CB2 receptor inhibitors” (Bioorg Med Chem Lett, 2010)
# Organism: Rattus norvegicus
# Conditions: in vivo, 6 h
row,Structure (SMILES),AUC
1,O=S(=O)(c1ccccn1)c1ccc(Cl)cc1S(=O)(=O)N1CCC2(CC1)CC2NS(=O)(=O)C(F)(F)F (stereo not drawn),6.1 µM
2,O=S(=O)(c1ccccn1)c1ccc(OC(F)(F)F)cc1S(=O)(=O)N1CCC2(CC1)CC2NS(=O)(=O)C(F)(F)F (stereo not drawn),7.3 µM
3,O=S(=O)(c1ccccc1F)c1cc(Cl)ccc1S(=O)(=O)N1CCC(CNS(=O)(=O)C(F)(F)F)CC1,1.9 µM
